Results reported in ChEMBL document CHEMBL3885861, “Open TG-GATES”.

Species on record: Rattus norvegicus
Experiment: Open TG-GATES - Regimen: Daily Repeat
Format: toxicity, organism-based, Sprague-Dawley
Set-up: regimen Daily Repeat, gender Male, age 6 weeks
Settings: in vivo, po, route gavage; for APTT / Bas / Eos / Fbg / Ht / Lym / MCH / MCHC / MCV / PT / Plat / RBC / Ret / WBC / Hb / Mono / Neu: tissue Blood; for KIDNEY_L / KIDNEY_R / KIDNEY_TOTAL: tissue Kidney; for LIVER: tissue Liver; for ALP / ALT / AST / CRE / Ca / Cl / DBIL / IP / K / LDH / Na / PL / RALB / TBIL / TC / TG / TP / gamma-GTP / BUN: tissue Plasma
[1] = 0 mg/kg, 72 h, dose level Control, time 3 day
[2] = 0 mg/kg, […], dose level Control, time 14 day
[3] = 0 mg/kg, […], dose level Control, time 28 day
[4] = 1 mg/kg, 72 h, dose level Low, time 3 day
[5] = 1 mg/kg, […], dose level Low, time 14 day
[6] = 1 mg/kg, […], dose level Low, time 28 day

C#C[C@]1(O)CC[C@H]2[C@@H]3CCc4cc(O)ccc4[C@H]3CC[C@@]21C [ETHINYL ESTRADIOL]
TERMINAL_BW [1]: 222.5 g
APTT [1]: 16.4 s
Bas [1]: 0.2%
Eos [1]: 1%
Fbg [1]: 261.6 mg/dL
Ht [1]: 40.2%
Lym [1]: 79%
MCH [1]: 21.4 pg
MCHC [1]: 33.5%
MCV [1]: 63.8 fL
PT [1]: 12.3 s
Plat [1]: 110.8 x10_4/uL
RBC [1]: 630.4 x10_4/ul
Ret [1]: 7.8%
WBC [1]: 93.3 x10_2/uL
KIDNEY_L [1]: 0.9 g
KIDNEY_R [1]: 1 g
LIVER [1]: 10.3 g
ALP [1]: 1467.2 IU/L
ALT [1]: 49.6 IU/L
AST [1]: 73.2 IU/L
CRE [1]: 0.2 mg/dL
Ca [1]: 10.8 mg/dL
Cl [1]: 106.8 meq/L
DBIL [1]: 0.018 mg/dL
IP [1]: 6.5 mg/dL
K [1]: 4 meq/L
LDH [1]: 68.4 IU/L
Na [1]: 143.2 meq/L
PL [1]: 134.2 mg/dL
RALB [1]: 2.6 g/dL
TBIL [1]: 0.034 mg/dL
TC [1]: 77.8 mg/dL
TG [1]: 98.2 mg/dL
TP [1]: 5.5 g/dL
gamma-GTP [1]: 1.2 IU/L
TERMINAL_BW [2]: 321.6 g
TERMINAL_BW [3]: 423 g
APTT [2]: 16.7 s
Bas [2]: 0%
Eos [2]: 1%
Fbg [2]: 279.4 mg/dL
Hb [2]: 13.9 g/dL
Ht [2]: 40.3%
Lym [2]: 76.4%
MCH [2]: 20.9 pg
MCV [2]: 60.2 fL
Mono [2]: 2.4%
PT [2]: 11.8 s
Plat [2]: 120 x10_4/uL
RBC [2]: 668.4 x10_4/ul
Ret [2]: 4.5%
WBC [2]: 90.3 x10_2/uL
APTT [3]: 18 s
Bas [3]: 0.2%
Eos [3]: 1%
Fbg [3]: 294.2 mg/dL
Hb [3]: 15 g/dL
Ht [3]: 42.5%
Lym [3]: 79.4%
MCH [3]: 20.3 pg
MCHC [3]: 35.3%
MCV [3]: 57.3 fL
Mono [3]: 2.2%
Plat [3]: 88.3 x10_4/uL
RBC [3]: 742.6 x10_4/ul
Ret [3]: 2.6%
WBC [3]: 108.2 x10_2/uL
KIDNEY_L [2]: 1.3 g
KIDNEY_R [2]: 1.3 g
KIDNEY_TOTAL [2]: 2.6 g
KIDNEY_L [3]: 1.4 g
KIDNEY_R [3]: 1.4 g
KIDNEY_TOTAL [3]: 2.8 g
LIVER [2]: 14.4 g
LIVER [3]: 18.3 g
ALP [2]: 1586.6 IU/L
ALT [2]: 44.2 IU/L
AST [2]: 66.6 IU/L
BUN [2]: 15.4 mg/dL
CRE [2]: 0.2 mg/dL
Ca [2]: 11.3 mg/dL
Cl [2]: 104.8 meq/L
DBIL [2]: 0.016 mg/dL
IP [2]: 6.5 mg/dL
K [2]: 3.9 meq/L
LDH [2]: 72.8 IU/L
Na [2]: 143.2 meq/L
PL [2]: 143 mg/dL
TBIL [2]: 0.07 mg/dL
TC [2]: 74.6 mg/dL
TG [2]: 104.4 mg/dL
TP [2]: 6 g/dL
gamma-GTP [2]: 0.8 IU/L
ALP [3]: 1125 IU/L
ALT [3]: 39.4 IU/L
AST [3]: 58 IU/L
BUN [3]: 16 mg/dL
CRE [3]: 0.2 mg/dL
Cl [3]: 104.8 meq/L
DBIL [3]: 0.012 mg/dL
IP [3]: 6.1 mg/dL
K [3]: 3.8 meq/L
LDH [3]: 59.2 IU/L
Na [3]: 143.2 meq/L
PL [3]: 155.8 mg/dL
RALB [3]: 2.9 g/dL
TBIL [3]: 0.066 mg/dL
TC [3]: 80.4 mg/dL
TG [3]: 137.2 mg/dL
TP [3]: 6.3 g/dL
gamma-GTP [3]: 1 IU/L
TERMINAL_BW [4]: 204.6 g
APTT [4]: 17 s
Bas [4]: 0%
Eos [4]: 1%
Fbg [4]: 309.6 mg/dL
Ht [4]: 39.1%
Lym [4]: 82.4%
MCHC [4]: 34.2%
MCV [4]: 62.3 fL
Mono [4]: 3.6%
Neu [4]: 12.6%
PT [4]: 13.1 s
Plat [4]: 107.6 x10_4/uL
RBC [4]: 627.4 x10_4/ul
Ret [4]: 5.1%
WBC [4]: 72 x10_2/uL
KIDNEY_L [4]: 1 g
KIDNEY_R [4]: 1 g
KIDNEY_TOTAL [4]: 2 g
LIVER [4]: 11.7 g
ALP [4]: 2115.4 IU/L
ALT [4]: 41.2 IU/L
AST [4]: 84.2 IU/L
BUN [4]: 9.4 mg/dL
CRE [4]: 0.2 mg/dL
Ca [4]: 10.6 mg/dL
Cl [4]: 107.4 meq/L
DBIL [4]: 0.038 mg/dL
IP [4]: 7.4 mg/dL
K [4]: 4 meq/L
LDH [4]: 95.4 IU/L
Na [4]: 144 meq/L
PL [4]: 82.6 mg/dL
RALB [4]: 2.6 g/dL
TBIL [4]: 0.07 mg/dL
TC [4]: 29.4 mg/dL
TG [4]: 73.6 mg/dL
TP [4]: 5.6 g/dL
gamma-GTP [4]: 1.2 IU/L
TERMINAL_BW [5]: 243.2 g
TERMINAL_BW [6]: 264.8 g
APTT [5]: 23 s
Bas [5]: 0%
Eos [5]: 1%
Fbg [5]: 328.6 mg/dL
Hb [5]: 13.9 g/dL
Ht [5]: 38.9%
Lym [5]: 77.6%
MCH [5]: 20.1 pg
MCHC [5]: 35.6%
MCV [5]: 56.3 fL
PT [5]: 13.5 s
Plat [5]: 120.8 x10_4/uL
RBC [5]: 690.2 x10_4/ul
Ret [5]: 1.8%
WBC [5]: 80.9 x10_2/uL
APTT [6]: 27.7 s
Bas [6]: 0%
Eos [6]: 1%
Fbg [6]: 328.6 mg/dL
Hb [6]: 14.3 g/dL
Ht [6]: 39%
Lym [6]: 77.6%
MCH [6]: 19.9 pg
MCHC [6]: 36.7%
MCV [6]: 54.2 fL
Mono [6]: 2.6%
Neu [6]: 18.8%
PT [6]: 13.6 s
Plat [6]: 113.5 x10_4/uL
RBC [6]: 720.8 x10_4/ul
Ret [6]: 2.4%
WBC [6]: 82.1 x10_2/uL
KIDNEY_L [5]: 1 g
KIDNEY_R [5]: 1 g
KIDNEY_TOTAL [5]: 2 g
KIDNEY_L [6]: 1 g
KIDNEY_R [6]: 1 g
KIDNEY_TOTAL [6]: 2 g
LIVER [5]: 13.6 g
LIVER [6]: 14.4 g
ALP [5]: 1995.4 IU/L
ALT [5]: 41 IU/L
AST [5]: 53.8 IU/L
BUN [5]: 13.2 mg/dL
CRE [5]: 0.2 mg/dL
Cl [5]: 105.8 meq/L
DBIL [5]: 0.03 mg/dL
IP [5]: 5.7 mg/dL
K [5]: 3.9 meq/L
LDH [5]: 60.8 IU/L
Na [5]: 143.8 meq/L
PL [5]: 105.4 mg/dL
RALB [5]: 2.9 g/dL
TBIL [5]: 0.084 mg/dL
TC [5]: 33.4 mg/dL
TG [5]: 68 mg/dL
TP [5]: 6.5 g/dL
ALP [6]: 1546.2 IU/L
ALT [6]: 37.8 IU/L
AST [6]: 50.6 IU/L
BUN [6]: 14 mg/dL
CRE [6]: 0.3 mg/dL
Ca [6]: 10.8 mg/dL
Cl [6]: 105.4 meq/L
DBIL [6]: 0.036 mg/dL
IP [6]: 5.3 mg/dL
K [6]: 3.6 meq/L
LDH [6]: 38 IU/L
Na [6]: 144 meq/L
PL [6]: 147 mg/dL
RALB [6]: 3 g/dL
